According to ChEMBL document CHEMBL5365473, “Novel Sulfonylurea-Based NLRP3 Inflammasome Inhibitor for Efficient Treatment of Nonalcoholic Steatohepatitis, Endotoxic Shock, and Colitis” (J Med Chem, 2023):
Activity calls are given as the source filed them. No cut-off for these calls is given here.

Tests used:
[1] = MRT (0 to infinity) in ICR mouse at 5 mg/kg, iv by LC-MS/MS analysis; assay type: ADME, organism-based; conditions: in vivo
[2] = Toxicity against female ICR mouse assessed as effect on lung weight at 200 to 500 mg/kg administered via gavage for 12 days; assay type: organism-based; conditions: in vivo, po, 288 h, dose 200-500 mg/kg, time 12 day
[3] = Toxicity against female ICR mouse assessed as effect on spleen weight at 200 to 500 mg/kg administered via gavage for 12 days; assay type: organism-based; conditions: in vivo, po, 288 h, dose 200-500 mg/kg, time 12 day
[4] = tested on: Mus musculus; experiment: Antiinflammatory activity against MCD diet-induced NASH C57BL/6 mouse model assessed as reduction in balloon dilatation in liver at 40 mg/kg, po administered via gavage for 5 weeks by Masson's trichrome staining based analysis; assay type: functional, organism-based
[5] = tested on: Mus musculus; experiment: Antiinflammatory activity against LPS-induced lethal septic shock C57BL/6 mouse model assessed as increase in animal's survival rate at 40 mg/kg, ip administered for 1 hr prior to LPS challenge and measured for 72 hrs; assay type: functional; conditions: time 73 hrs
[6] = biological target: NACHT, LRR and PYD domains-containing protein 3 (Homo sapiens) (UniProt Q96P20); experiment: Inhibition of NLRP3 inflammasome in PMA-induced differentiated human THP-1 cells assessed as inhibition of IL-1 beta secretion primed with LPS for 4.5 hrs followed by incubation with compound for 2.5 hrs and later stimulated with ATP for 1 hr by immunoblot analysis; assay type: cell-based; conditions: dose 3-30 nM, time 3.5 hrs
Chain of NACHT, LRR and PYD domains-containing protein 3 (Homo sapiens) (Q96P20 whole entry, the tested form may be a part): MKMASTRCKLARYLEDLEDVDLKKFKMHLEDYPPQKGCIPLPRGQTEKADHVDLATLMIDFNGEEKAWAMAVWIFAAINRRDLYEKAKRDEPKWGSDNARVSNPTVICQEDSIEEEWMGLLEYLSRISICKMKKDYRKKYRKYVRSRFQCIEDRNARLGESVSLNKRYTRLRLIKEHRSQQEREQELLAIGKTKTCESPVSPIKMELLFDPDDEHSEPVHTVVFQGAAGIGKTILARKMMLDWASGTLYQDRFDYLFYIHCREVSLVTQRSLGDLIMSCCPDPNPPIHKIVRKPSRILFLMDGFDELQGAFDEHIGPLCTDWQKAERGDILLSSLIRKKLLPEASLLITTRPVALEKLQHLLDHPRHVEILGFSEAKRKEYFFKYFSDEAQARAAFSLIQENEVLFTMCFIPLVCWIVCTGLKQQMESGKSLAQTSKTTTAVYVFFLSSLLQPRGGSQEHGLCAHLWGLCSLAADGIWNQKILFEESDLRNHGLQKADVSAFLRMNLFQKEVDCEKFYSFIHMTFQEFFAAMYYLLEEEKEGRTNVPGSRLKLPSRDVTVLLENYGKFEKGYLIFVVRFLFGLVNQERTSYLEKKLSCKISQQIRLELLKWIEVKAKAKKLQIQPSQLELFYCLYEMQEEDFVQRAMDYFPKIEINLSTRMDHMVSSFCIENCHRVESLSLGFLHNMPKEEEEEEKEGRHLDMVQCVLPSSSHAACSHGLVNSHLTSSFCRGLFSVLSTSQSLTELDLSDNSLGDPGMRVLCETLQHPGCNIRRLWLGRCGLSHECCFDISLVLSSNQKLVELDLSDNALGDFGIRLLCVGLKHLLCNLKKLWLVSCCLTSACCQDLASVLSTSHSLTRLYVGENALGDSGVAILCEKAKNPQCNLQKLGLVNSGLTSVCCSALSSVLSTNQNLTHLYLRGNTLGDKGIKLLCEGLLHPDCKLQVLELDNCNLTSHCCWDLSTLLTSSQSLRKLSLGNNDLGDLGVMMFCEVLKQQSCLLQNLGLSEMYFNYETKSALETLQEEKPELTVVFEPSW

[7] = tested on: Mus musculus; experiment: Antiinflammatory activity against DSS-induced ulcerative colitis C57BL/6 mouse assessed as reduction in crypt necrosis in colon at 10 mg/kg, ip administered for 9 days and measured on day 10 by H and E staining based analysis; assay type: functional, organism-based; conditions: time 10.0 day
[8] = Toxicity against female ICR mouse assessed as effect on brain weight at 200 to 500 mg/kg administered via gavage for 12 days; assay type: organism-based; conditions: in vivo, po, 288 h, dose 200-500 mg/kg, time 12 day
[9] = tested on: Mus musculus; experiment: Antiinflammatory activity against MCD diet-induced NASH C57BL/6 mouse model assessed as reduction in liver steatosis at 40 mg/kg, po administered via gavage for 5 weeks by Masson's trichrome staining based analysis; assay type: functional, organism-based
[10] = tested on: Mus musculus; experiment: Antiinflammatory activity against DSS-induced ulcerative colitis C57BL/6 mouse assessed as reduction in massive loss of goblet cells in colon at 10 mg/kg, ip administered for 9 days and measured on day 10 by H and E staining based analysis; assay type: functional, organism-based; conditions: time 10.0 day
[11] = Half life in ICR mouse at 10 mg/kg, po by LC-MS/MS analysis; assay type: ADME, organism-based; conditions: in vivo
[12] = tested on: Mus musculus; experiment: Antiinflammatory activity against MCD diet-induced NASH C57BL/6 mouse model assessed as reduction in liver steatosis at 40 mg/kg, po administered via gavage for 5 weeks by H and E staining based analysis; assay type: functional, organism-based
[13] = Toxicity against male ICR mouse assessed as effect on plasma AST level at 200 to 500 mg/kg administered via gavage for 12 days; assay type: organism-based; conditions: in vivo, po, 288 h, dose 200-500 mg/kg, time 12 day
[14] = tested on: Mus musculus; experiment: Antiinflammatory activity against MCD diet-induced NASH C57BL/6 mouse model assessed as reduction in liver steatosis at 40 mg/kg, po administered via gavage for 5 weeks by Sirius red staining based analysis; assay type: functional, organism-based
[15] = Toxicity against male ICR mouse assessed as effect on lung weight at 200 to 500 mg/kg administered via gavage for 12 days; assay type: organism-based; conditions: in vivo, po, 288 h, dose 200-500 mg/kg, time 12 day
[16] = biological target: NACHT, LRR and PYD domains-containing protein 3 (Mus musculus, UniProt Q8R4B8); experiment: Inhibition of NLRP3 inflammasome in mouse […] cells assessed as inhibition of LPS/ATP-induced IL-1 beta secretion primed with LPS for 4.5 hs followed by incubation with compound for 30 mins and later stimulation with ATP for 30 mins by ELISA; assay type: cell-based, J774.A1
Chain of NACHT, LRR and PYD domains-containing protein 3 (Q8R4B8 whole entry, the tested form may be a part): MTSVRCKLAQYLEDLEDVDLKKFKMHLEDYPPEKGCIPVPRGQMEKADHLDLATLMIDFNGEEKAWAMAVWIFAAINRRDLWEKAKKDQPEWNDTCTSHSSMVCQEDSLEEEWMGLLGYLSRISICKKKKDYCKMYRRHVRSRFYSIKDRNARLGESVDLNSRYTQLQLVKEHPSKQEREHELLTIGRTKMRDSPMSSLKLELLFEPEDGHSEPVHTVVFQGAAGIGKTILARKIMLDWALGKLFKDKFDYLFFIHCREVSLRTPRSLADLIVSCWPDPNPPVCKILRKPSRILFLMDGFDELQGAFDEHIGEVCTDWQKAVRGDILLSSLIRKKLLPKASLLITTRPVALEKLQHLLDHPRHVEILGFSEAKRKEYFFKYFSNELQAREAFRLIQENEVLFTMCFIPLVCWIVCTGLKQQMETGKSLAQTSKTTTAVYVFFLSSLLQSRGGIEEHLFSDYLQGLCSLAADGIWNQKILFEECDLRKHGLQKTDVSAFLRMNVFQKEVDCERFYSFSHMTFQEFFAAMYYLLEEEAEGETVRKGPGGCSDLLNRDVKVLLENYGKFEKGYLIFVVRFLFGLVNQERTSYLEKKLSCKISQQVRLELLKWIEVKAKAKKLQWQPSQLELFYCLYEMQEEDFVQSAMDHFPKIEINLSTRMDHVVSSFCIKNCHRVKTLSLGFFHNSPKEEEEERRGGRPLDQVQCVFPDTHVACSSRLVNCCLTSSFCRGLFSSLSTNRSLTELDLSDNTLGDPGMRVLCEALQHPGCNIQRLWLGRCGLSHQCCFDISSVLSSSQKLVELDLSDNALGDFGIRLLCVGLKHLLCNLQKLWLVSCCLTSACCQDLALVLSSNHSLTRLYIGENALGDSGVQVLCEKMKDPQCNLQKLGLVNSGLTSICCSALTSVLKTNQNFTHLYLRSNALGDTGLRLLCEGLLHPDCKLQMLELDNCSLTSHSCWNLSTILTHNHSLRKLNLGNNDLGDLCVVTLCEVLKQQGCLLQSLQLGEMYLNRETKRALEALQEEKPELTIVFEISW

[17] = tested on: Mus musculus; experiment: Antiinflammatory activity against MCD diet-induced NASH C57BL/6 mouse model assessed as improvement in liver morphology at 40 mg/kg, po administered via gavage for 5 weeks by H and E staining based analysis; assay type: functional, organism-based
[18] = Toxicity against female ICR mouse assessed as effect on plasma AST level at 200 to 500 mg/kg administered via gavage for 12 days; assay type: organism-based; conditions: in vivo, po, 288 h, dose 200-500 mg/kg, time 12 day
[19] = tested on: Mus musculus; experiment: Antiinflammatory activity against MCD diet-induced NASH C57BL/6 mouse model assessed as reduction in balloon dilatation in liver at 40 mg/kg, po administered via gavage for 5 weeks by H and E staining based analysis; assay type: functional, organism-based
[20] = tested on: Mus musculus; experiment: Antiinflammatory activity against MCD diet-induced NASH C57BL/6 mouse model assessed as improvement in liver morphology at 40 mg/kg, po administered via gavage for 5 weeks by Masson's trichrome staining based analysis; assay type: functional, organism-based
[21] = tested on: J774.A1; experiment: Effect on NLRP3 protein expression in mouse J774.A1 cells at 3 to 30 nM primed with LPS for 4.5 hrs followed by incubation with compound for 2.5 hrs and later stimulated with ATP for 30 mins by immunoblot analysis; assay type: functional, cell-based; conditions: dose 3-30 nM, time 3.0 hrs
[22] = biological target: NACHT, LRR and PYD domains-containing protein 3 (Mus musculus) (UniProt Q8R4B8); experiment: Inhibition of NLRP3 inflammasome in mouse J774.A1 cells assessed as inhibition of caspase-1 activation at 30 nM primed with LPS for 4.5 hrs followed by incubation with compound for 24 hrs and later stimulated with nigericin for 1 hr by immunoblot analysis; assay type: cell-based; conditions: time 25.0 hrs
Chain of NACHT, LRR and PYD domains-containing protein 3 (Mus musculus) (Q8R4B8 whole entry, the tested form may be a part): as above

[23] = Toxicity against male ICR mouse assessed as effect on liver weight at 200 to 500 mg/kg administered via gavage for 12 days; assay type: organism-based; conditions: in vivo, po, 288 h, dose 200-500 mg/kg, time 12 day
[24] = Drug uptake in Sprague-Dawley rat muscle at 50 mg/kg, po measured for 24 hrs by LC-MS/MS analysis; assay type: ADME, organism-based, Muscle tissue; conditions: in vivo
[25] = Tmax in ICR mouse at 10 mg/kg, po by LC-MS/MS analysis; assay type: ADME, organism-based; conditions: in vivo
[26] = MRT (0 to infinity) in ICR mouse at 10 mg/kg, po by LC-MS/MS analysis; assay type: ADME, organism-based; conditions: in vivo
[27] = tested on: Mus musculus; experiment: Antiinflammatory activity against MCD diet-induced NASH C57BL/6 mouse model assessed as reduction in liver fibrosis at 40 mg/kg, po administered via gavage for 5 weeks by Sirius red staining based analysis; assay type: functional, organism-based
[28] = Drug uptake in Sprague-Dawley rat adipose tissue at 50 mg/kg, po measured for 24 hrs by LC-MS/MS analysis; assay type: ADME, organism-based; conditions: in vivo
[29] = tested on: Mus musculus; experiment: Antiinflammatory activity against LPS-induced lethal septic shock C57BL/6 mouse model assessed as reduction in serum IL-1 beta level at 20 to 40 mg/kg, ip administered for 1 hr prior to LPS challenge and measured after 2.5 hrs by ELISA; assay type: functional, organism-based; conditions: dose 20-40 mg/kg, time 3.5 hrs
[30] = Toxicity against male ICR mouse assessed as effect on brain weight at 200 to 500 mg/kg administered via gavage for 12 days; assay type: organism-based; conditions: in vivo, po, 288 h, dose 200-500 mg/kg, time 12 day
[31] = Drug uptake in Sprague-Dawley rat liver at 50 mg/kg, po measured for 24 hrs by LC-MS/MS analysis; assay type: ADME, organism-based; conditions: in vivo
[32] = Toxicity against male ICR mouse assessed as effect on body weight at 200 to 500 mg/kg administered via gavage for 12 days; assay type: organism-based; conditions: in vivo, po, 288 h, dose 200-500 mg/kg, time 12 day
[33] = Toxicity against male ICR mouse assessed as effect on spleen weight at 200 to 500 mg/kg administered via gavage for 12 days; assay type: organism-based; conditions: in vivo, po, 288 h, dose 200-500 mg/kg, time 12 day

With `CN(C)Cc1ccc(S(=O)(=O)NC(=O)Nc2c3c(cc4c2CCC4)CCC3)cc1` the MRT inf [1] was 5.3 h, the Activity [2] was “Non-Toxic” and the Activity [3] was “Non-Toxic”. The Activity [4] was “Active”, the survival at 40 mg/kg [5] was 70% and the inhibition [6] was “Dose-Dependent Effect”. The Activity [7] was “Active”, the Activity [8] was “Non-Toxic” and the Activity [9] was “Active”. For the same compound, the Activity [10] was “Active”, the half-life [11] was 3.5 h and the Activity [12] was “Active”. For the same compound, the Activity [13] was “Non-Toxic”, the Activity [14] was “Active” and the Activity [15] was “Non-Toxic”. For the same compound, the IC50 [16] was 0.025 µM, the Activity [17] was “Active” and the Activity [18] was “Non-Toxic”. For the same compound, the Activity [19] was “Active”, the Activity [20] was “Active” and the Activity [21] was “inactive”. For the same compound, the inhibition [22] was “Active”, the Activity [23] was “Non-Toxic” and the Drug uptake [24] was “Active”. For the same compound, the Tmax [25] was 0.667 h, the MRT inf [26] was 4.79 h and the Activity [27] was “Active”. For the same compound, the Drug uptake [28] was “Active”, the Activity [29] was “Active” and the Activity [30] was “Non-Toxic”. For the same compound, the Drug uptake [31] was “Active”, the Activity [32] was “Non-Toxic” and the Activity [33] was “Non-Toxic”.
